# Measured values reported in article PMC13198257, “An aerosolized dual-action autotaxin inhibitor-PPARγ agonist for the treatment of pulmonary fibrosis” (Cell Reports Medicine, 2026).
# Tested on: lung gene expression
# Assay: RNA sequencing of lung tissue (BLM/EL244 vs BLM)
# Format: in vivo, mouse
# Description: RNA quality was assessed using an Agilent TapeStation 4150 with the High Sensitivity […] ScreenTape (Agilent), according to the manufacturer’s protocols. For library preparation, the QuantSeq 3’mRNA-Seq Library Prep Kit (Lexogen) was used according to manufacturer’s instructions. Briefly, 500 ng of RNA from each sample was used for first-strand synthesis, followed by RNA template removal, and second-strand synthesis initiated by random primers. In-line barcodes were introduced at this step, and this was followed by magnetic bead-based purification. The resulting libraries were amplified for 15 cycles and re-purified, with quantity and quality assessed on a Qubit 4 Fluorometer with the Invitrogen Qubit dsDNA HS Assay and an Agilent Tapestation 4150 with the High Sensitivity D1000 assay kit, respectively. The quantified libraries were pooled equimolarly; 50ng of total library mix was used for Adapter Conversion PCR Amplification using the Universal Library Conversion Kit (App-A), Version: V1.0 (MGI Tech Co., Ltd.), according to the manufacturer’s instructions.
# The quantity and quality of the purified adapter conversion PCR (AC-PCR) product were evaluated on a Qubit 4 Fluorometer with the Invitrogen Qubit dsDNA HS Assay and on an Agilent Tapestation 4150 with the High Sensitivity D1000 assay kit, respectively. This was followed by DNA denaturation, Single-Strand Circularisation, Enzymatic Digestion, Enzymatic Digestion Product Cleanup and Quality Control steps on 1 pmol of AC-PCR product, according to the Universal Library Conversion Kit (App-A) User Manual (Version: A3).
# Finally, 60 fmol of ssCirDNA were used for DNB preparation and sequencing on a DNBSEQ-G400 platform at the BSRC Alexander Fleming Genomics Facility, using a G400 App-A FCS SE100 High-throughput Sequencing Set (MGI Tech Co., Ltd.), according to the manufacturer’s instructions.
# Alignment of the FASTQ files was performed against the mouse genome build mm10 using a custom Bash script.[143] Read counting on the 3′ UTRs and differential expression analysis were conducted using the metaseqR2 bioconductor package.[144] Genes corresponding to the following biotypes were excluded: polymorphic_pseudogene, processed_transcript, pseudogene, IG_V_pseudogene, misc_RNA, IG_C_gene, IG_J_gene, IG_D_gene, IG_LV_gene, TR_V_gene, TR_V_pseudogene, TEC, and processed_pseudogene. Gene counts were normalized with DESEQ[145] through metaseqR2. Genes with more than 10 counts in at least 50% of the samples were kept for further processing. For differential expression analysis, the PANDORA algorithm[146] was used to estimate a meta p-value integrating the results from the DESEQ, DESEQ2,[147] edgeR,[148] limma,[149] NBPSeq,[150] and NOISeq[151] algorithms. All additional parameters were set to default values.
# Pathway enrichment analysis was performed for the Gene Ontology Biological process (BP) and Molecular Function (MF) terms through GeneCodis 4.[152] The volcano plots, scatterplots, Venn diagrams, and dot plots were generated using the ggplot2 Bioconductor package.
smiles,measurement,setting,value
"O=C1NC(=O)C(Cc2ccc(OCCC3CCN(C(=O)OCc4cc(Cl)cc(Cl)c4)CC3)cc2)S1 (stereo not shown) [EL244, 3,5-dichlorobenzyl 4-(2-(4-((2,4-dioxothiazolidin-5-yl)methyl)phenoxy)ethyl)piperidine-1-carboxylate]",Ear1 log2 nFC BLM/EL244 vs BLM,"DEG Ear1, nFC: normalised fold change",1.11
same,Ednrb log2 nFC BLM/EL244 vs BLM,"DEG Ednrb, nFC: normalised fold change",0.97
same,Elmod1 log2 nFC BLM/EL244 vs BLM,"DEG Elmod1, nFC: normalised fold change",0.89
same,Eml5 log2 nFC BLM/EL244 vs BLM,"DEG Eml5, nFC: normalised fold change",1.41
same,Eng log2 nFC BLM/EL244 vs BLM,"DEG Eng, nFC: normalised fold change",0.81
same,Errfi1 log2 nFC BLM/EL244 vs BLM,"DEG Errfi1, nFC: normalised fold change",0.95
same,Esm1 log2 nFC BLM/EL244 vs BLM,"DEG Esm1, nFC: normalised fold change",1.28
same,Fabp3 log2 nFC BLM/EL244 vs BLM,"DEG Fabp3, nFC: normalised fold change",0.98
same,Fabp12 log2 nFC BLM/EL244 vs BLM,"DEG Fabp12, nFC: normalised fold change",1.43
same,Faim2 log2 nFC BLM/EL244 vs BLM,"DEG Faim2, nFC: normalised fold change",2.03
same,Fam71f2 log2 nFC BLM/EL244 vs BLM,"DEG Fam71f2, nFC: normalised fold change",1.96
same,log2 nFC BLM/EL244 vs BLM,DEG Fcgr1,-1.30
same,log2 nFC BLM/EL244 vs BLM,DEG Fcrls,-1.35
same,log2 nFC BLM/EL244 vs BLM,DEG Fgf13,-1.40
same,log2 nFC BLM/EL244 vs BLM,DEG Fkbp10,-1.25
same,Fmo1 log2 nFC BLM/EL244 vs BLM,"DEG Fmo1, nFC: normalised fold change",0.86
same,Fmo2 log2 nFC BLM/EL244 vs BLM,"DEG Fmo2, nFC: normalised fold change",1.00
same,Fosb log2 nFC BLM/EL244 vs BLM,"DEG Fosb, nFC: normalised fold change",2.38
same,log2 nFC BLM/EL244 vs BLM,DEG Foxm1,-1.56
same,Fxyd1 log2 nFC BLM/EL244 vs BLM,"DEG Fxyd1, nFC: normalised fold change",0.80
same,Fzd4 log2 nFC BLM/EL244 vs BLM,"DEG Fzd4, nFC: normalised fold change",0.69
same,Galnt15 log2 nFC BLM/EL244 vs BLM,"DEG Galnt15, nFC: normalised fold change",0.89
same,log2 nFC BLM/EL244 vs BLM,DEG Gas2l3,-1.32
same,Ggt1 log2 nFC BLM/EL244 vs BLM,"DEG Ggt1, nFC: normalised fold change",1.91
same,log2 nFC BLM/EL244 vs BLM,DEG Gins2,-1.57
same,Gm867 log2 nFC BLM/EL244 vs BLM,"DEG Gm867, nFC: normalised fold change",2.18
same,Gm4956 log2 nFC BLM/EL244 vs BLM,"DEG Gm4956, nFC: normalised fold change",1.08
same,Gm9780 log2 nFC BLM/EL244 vs BLM,"DEG Gm9780, nFC: normalised fold change",2.06
same,Gm14964 log2 nFC BLM/EL244 vs BLM,"DEG Gm14964, nFC: normalised fold change",1.87
same,Gm20186 log2 nFC BLM/EL244 vs BLM,"DEG Gm20186, nFC: normalised fold change",1.31
same,Gm26236 log2 nFC BLM/EL244 vs BLM,"DEG Gm26236, nFC: normalised fold change",1.03
same,Gm42722 log2 nFC BLM/EL244 vs BLM,"DEG Gm42722, nFC: normalised fold change",1.79
same,Gm47291 log2 nFC BLM/EL244 vs BLM,"DEG Gm47291, nFC: normalised fold change",0.98
same,Gm49353 log2 nFC BLM/EL244 vs BLM,"DEG Gm49353, nFC: normalised fold change",2.21
same,Gm49391 log2 nFC BLM/EL244 vs BLM,"DEG Gm49391, nFC: normalised fold change",0.96
same,Gnao1 log2 nFC BLM/EL244 vs BLM,"DEG Gnao1, nFC: normalised fold change",0.85
same,Gnmt log2 nFC BLM/EL244 vs BLM,"DEG Gnmt, nFC: normalised fold change",1.14
same,Gpm6a log2 nFC BLM/EL244 vs BLM,"DEG Gpm6a, nFC: normalised fold change",0.83
same,Gpr155 log2 nFC BLM/EL244 vs BLM,"DEG Gpr155, nFC: normalised fold change",0.76
same,Gprasp1 log2 nFC BLM/EL244 vs BLM,"DEG Gprasp1, nFC: normalised fold change",0.72
same,Gpt log2 nFC BLM/EL244 vs BLM,"DEG Gpt, nFC: normalised fold change",0.73
same,Gria1 log2 nFC BLM/EL244 vs BLM,"DEG Gria1, nFC: normalised fold change",1.61
same,Gsn log2 nFC BLM/EL244 vs BLM,"DEG Gsn, nFC: normalised fold change",1.06
same,Gsta3 log2 nFC BLM/EL244 vs BLM,"DEG Gsta3, nFC: normalised fold change",1.10
same,Gstm1 log2 nFC BLM/EL244 vs BLM,"DEG Gstm1, nFC: normalised fold change",0.75
same,log2 nFC BLM/EL244 vs BLM,DEG Gtse1,-1.49
same,log2 nFC BLM/EL244 vs BLM,DEG Gxylt2,-1.47
same,Gzma log2 nFC BLM/EL244 vs BLM,"DEG Gzma, nFC: normalised fold change",1.70
same,log2 nFC BLM/EL244 vs BLM,DEG H2ac11,-1.45
same,log2 nFC BLM/EL244 vs BLM,DEG H2ac12,-1.44
same,Hba-a1 log2 nFC BLM/EL244 vs BLM,"DEG Hba-a1, nFC: normalised fold change",1.21
same,Hba-a2 log2 nFC BLM/EL244 vs BLM,"DEG Hba-a2, nFC: normalised fold change",1.14
same,Hbb-bs log2 nFC BLM/EL244 vs BLM,"DEG Hbb-bs, nFC: normalised fold change",1.10
same,Hbb-bt log2 nFC BLM/EL244 vs BLM,"DEG Hbb-bt, nFC: normalised fold change",1.09
same,log2 nFC BLM/EL244 vs BLM,DEG Hells,-1.30
same,Hhatl log2 nFC BLM/EL244 vs BLM,"DEG Hhatl, nFC: normalised fold change",2.05
same,Hlf log2 nFC BLM/EL244 vs BLM,"DEG Hlf, nFC: normalised fold change",0.89
same,Igf1r log2 nFC BLM/EL244 vs BLM,"DEG Igf1r, nFC: normalised fold change",0.70
